Results reported in US20080234384A1, “BIARYL AND BIHETEROARYL COMPOUNDS USEFUL IN TREATING IRON DISORDERS” (XENON PHARMACEUTICALS INC., priority 2007, published 2008).
pIC50: −log10 of the molar value. Where a name gives a salt, the structure may show the parent alone.

Key:
DMT1 = target: T1, DMT1 (Homo sapiens, UniProt P49281); assay: DMT1 Activity Assay (In Vitro Assay); type: cell-based; conditions: read-out: IC50 Activity Level
T1 sequence (P49281 1-568): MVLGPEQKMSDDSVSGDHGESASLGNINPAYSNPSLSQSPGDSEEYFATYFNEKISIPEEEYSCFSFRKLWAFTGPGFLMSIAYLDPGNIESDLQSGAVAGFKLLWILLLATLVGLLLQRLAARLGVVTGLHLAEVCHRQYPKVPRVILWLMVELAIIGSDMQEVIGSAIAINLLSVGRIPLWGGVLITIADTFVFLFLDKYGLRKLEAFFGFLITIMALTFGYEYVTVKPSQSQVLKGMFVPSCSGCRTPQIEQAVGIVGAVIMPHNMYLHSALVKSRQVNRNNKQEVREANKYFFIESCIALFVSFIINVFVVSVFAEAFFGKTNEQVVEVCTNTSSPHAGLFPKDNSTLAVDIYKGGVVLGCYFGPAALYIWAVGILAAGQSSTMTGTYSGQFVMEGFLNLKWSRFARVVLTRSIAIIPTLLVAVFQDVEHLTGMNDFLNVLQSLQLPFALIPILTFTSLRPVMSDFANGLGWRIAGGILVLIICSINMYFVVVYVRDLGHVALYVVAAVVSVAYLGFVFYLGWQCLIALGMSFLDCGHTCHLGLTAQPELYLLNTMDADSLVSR
From the text: In particular, identification of the compounds of the invention ability to modulate, preferably to inhibit, DMT1 activity, can be assessed using a variety of in vitro and in vivo assays, for measuring uptake of reduced iron (Fe^2+). One such protocol involves the screening of chemical agents for ability to modulate the activity of DMT1 thereby identifying it as a modulating agent. The in vitro activity of DMT1 can be measured in cell based assays by either directly measuring iron flux (using a radioactively labelled iron ^55Fe) or by measuring the fluorescence of a cell permeable iron fluorophore such as calcein. Stable cell lines overexpressing DMT1 are exposed to ^55Fe or loaded with calcein and then compound is applied. […] Alternatively, in another format electrophysiological techniques can be used to measure the current or iron or other metals traversing the cell membrane with DMT1 in a Xenopus oocyte or other cell based system (Gunshin et al., Nature, 1997, 31; 388(6641):482-8).
This example discloses various in vitro assay for testing and profiling test agents against DMT1 stably expressed in cells of either an endogenous or recombinant origin. These assays can use stable cell lines overexpressing DMT1 or intestinal cells and intestinal tissue expressing endogenous DMT1. DMT1 function could also be assessed in other cell types that express DMT1. Of greatest relevance would be the erythrocytes (e.g. K562 cells) or hepatocytes (e.g. […]).
DMT1 function can be assessed in a number of ways, including monitoring fluorescence changes of an iron fluorophore (e.g. calcein), monitoring uptake of radiolabelled iron (55Fe or ^59Fe) (Picard et al., J. Biol. Chem., 2000, 275(46):35738-45 and Wetli et al., Chem. Biol. 2006 September; 13(9):965-72), or by assessing the current or transport of iron and other metals into the cells or tissues using standard electrophysiological techniques (Gunshin et al., Nature, 1997, 388(6641):482-8.).
Variations of these assays involve alterations of incubation times, the iron status of the cells and tissues (which may be modulated by chemical chelators or by harvesting from iron deficient animals), the metal cation detected and the pH of the reaction can generally be made by conventional techniques known to those skilled in the art.

| melting point | pIC50 (DMT1) | Compound |
| --- | --- | --- |
| > 220 °C |  | N=C(N)SCc1ccc(Cl)cc1Oc1cc([N+](=O)[O-])ccc1CSC(=N)N (as salt: hydrobromid) [Example 2.9, 2-[2-({[amino(imino)methyl]thio}methyl)-5-chlorophenoxy]-4-nitrobenzyl imidothiocarbamate dihydrobromide] |
| 204 to 206 °C |  | N=C(N)SCc1cc(F)ccc1Oc1cccc(Cl)c1CSC(=N)N (as salt: hydrobromid) [Example 2.10, 2-[2-(2-carbamimidoylsulfanylmethyl-3-chlorophenoxy)-5-fluorobenzyl]isothiourea dihydrobromide] |
| > 230 °C |  | N=C(N)SCc1cc(F)ccc1Oc1ccc(Cl)cc1CSC(=N)N (as salt: hydrobromid) [Example 2.11, 2-[2-(2-carbamimidoylsulfanylmethyl-4-chlorophenoxy)-5-fluorobenzyl]isothiourea dihydrobromide] |
| > 220 °C |  | N=C(N)SCc1cc(F)ccc1Oc1ccc([N+](=O)[O-])cc1CSC(=N)N (as salt: hydrobromid) [Example 2.14, 2-[2-({[amino(imino)methyl]thio}methyl)-4-fluorophenoxy]-5-nitrobenzyl imidothiocarbamate dihydrobromide] |
| > 220 °C |  | N=C(N)SCc1ccccc1Oc1ccc(Cl)cc1CSC(=N)N (as salt: hydrobromid) [Example 2.16, 2-[2-({[amino(imino)methyl]thio}methyl)-4-chlorophenoxy]benzyl imidothiocarbamate dihydrobromide] |
| 150 to 152 °C |  | N=C(N)SCc1ccccc1Oc1cccc(Cl)c1CSC(=N)N (as salt: hydrobromid) [Example 2.17, 2-[2-({[amino(imino)methyl]thio}methyl)-3-chlorophenoxy]benzyl imidothiocarbamate dihydrobromide] |
| > 220 °C |  | N=C(N)SCc1ccccc1Oc1cc(Cl)ccc1CSC(=N)N (as salt: hydrobromid) [Example 2.18, 2-[2-({[amino(imino)methyl]thio}methyl)-5-chlorophenoxy]benzyl imidothiocarbamate dihydrobromide] |
| > 220 °C |  | N=C(N)SCc1cc([N+](=O)[O-])ccc1Oc1cc(Cl)ccc1CSC(=N)N (as salt: hydrobromid) [Example 2.19, 2-[2-({[amino(imino)methyl]thio}methyl)-5-chlorophenoxy]-5-nitrobenzyl imidothiocarbamate dihydrobromide] |
| > 220 °C |  | N=C(N)SCc1cc(Cl)ccc1Oc1ccc([N+](=O)[O-])cc1CSC(=N)N (as salt: hydrobromid) [Example 2.20, 2-[2-({[amino(imino)methyl]thio}methyl)-4-chlorophenoxy]-5-nitrobenzyl imidothiocarbamate dihydrobromide] |
| > 220 °C |  | N=C(N)SCc1ccccc1Oc1ccc(F)cc1CSC(=N)N (as salt: hydrobromid) [Example 2.21, 2-[2-({[amino(imino)methyl]thio}methyl)-4-fluorophenoxy]benzyl imidothiocarbamate dihydrobromide] |
| 233 to 235 °C |  | N=C(N)SCc1cccc(CSC(=N)N)c1-c1c(CSC(=N)N)cccc1CSC(=N)N (as salt: hydrobromid) [Example 2.23, biphenyl-2,2′-6,6′-tetrayltetrakis(methylene)tetracarbamimidothioate tetrahydrobromide] |
| 222 to 225 °C |  | COC(=O)c1cccc(CSC(=N)N)c1-c1c(CSC(=N)N)cccc1C(=O)OC (as salt: hydrobromid) [Example 2.24, dimethyl 6,6′-bis(carbamimidoylthiomethyl)biphenyl-2,2′-dicarboxylate dihydrobromide] |
| 239 to 240 °C (dec.) |  | N=C(N)SCc1ccccc1C(=O)c1ccccc1CSC(=N)N (as salt: hydrobromid) [Example 2.25, 2-(6-(amidinothiomethyl)phenyl)carbonyl-1-(amidinothiomethyl)benzene dihydrobromide] |
| > 250 °C |  | N=C(N)SCc1ccccc1C(=O)c1ccc(F)cc1CSC(=N)N (as salt: hydrobromid) [Example 2.26, 2-(6-(amidinothiomethyl)phenyl)carbonyl-1-(amidinothiomethyl)-5-fluorobenzene dihydrobromide] |
| > 250 °C |  | N=C(N)SCc1ccccc1C(=O)c1cc(F)ccc1CSC(=N)N (as salt: hydrobromid) [Example 2.27, 2-(6-(amidinothiomethyl)phenyl)carbonyl-1-(amidinothiomethyl)-4-fluorobenzene dihydrobromide] |
| > 250 °C |  | N=C(N)SCc1ccccc1C(=O)c1cc(Cl)ccc1CSC(=N)N (as salt: hydrobromid) [Example 2.28, 2-(6-(amidinothiomethyl)phenyl)carbonyl-1-(amidinothiomethyl)-4-chlorobenzene dihydrobromide dihydrobromide] |
| > 250 °C |  | N=C(N)SCc1ccccc1C(=O)c1ccc(Cl)cc1CSC(=N)N (as salt: hydrobromid) [Example 2.29, 2-(6-(amidinothiomethyl)phenyl)carbonyl-1-(amidinothiomethyl)-5-chlorobenzene dihydrobromide] |
|  | ≤ 6.00 | N=C(N)SCc1ccccc1C(=O)c1cc(Cl)ccc1CSC(=N)N [Example 2.28, 2-(6-(amidinothiomethyl)phenyl)carbonyl-1-(amidinothiomethyl)-4-chlorobenzene dihydrobromide dihydrobromide] |
|  | ≤ 6.00 | N=C(N)SCc1ccccc1C(=O)c1ccc(Cl)cc1CSC(=N)N [Example 2.29, 2-(6-(amidinothiomethyl)phenyl)carbonyl-1-(amidinothiomethyl)-5-chlorobenzene dihydrobromide] |
|  | 6.00 to 7.00 | N=C(N)SCc1cc(F)ccc1Oc1cc(Cl)ccc1CSC(=N)N [Example 2.30, 2-[2-({[amino(imino)methyl]thio}methyl)-5-chlorophenoxy]-5-fluorobenzyl imidothiocarbamate dihydrobromide] |
|  | ≤ 6.00 | N=C(NN)SCc1ccccc1Sc1ccccc1CSC(=N)NN [Example 3, 2-(6-((aminoamidino)thiomethyl)phenyl)thio-1-((aminoamidino)thiomethyl)benzene dihydrobromide] |
| > 220 °C |  | NC(N)=NC(=O)c1ccccc1Sc1ccccc1C(=O)N=C(N)N [Example 4, 2,2′-thiobis(N-(diaminomethylene)benzamide)] |
|  | ≤ 6.00 | N=C(N)NCCc1ccccc1Sc1ccccc1CCNC(=N)N [Example 5, (4-methylbenzenesulfonate)] |
|  | ≤ 6.00 | N=C(N)CCc1ccccc1Sc1ccccc1CCC(=N)N [Example 6, 2-(6-(2-amidinoethyl)phenyl)thio-1-(2-amidinoethyl)benzene] |
|  | ≤ 6.00 | N=C(N)Cc1ccccc1Sc1ccccc1CC(=N)N [Example 6.1, 2-(6-(amidinomethyl)phenyl)thio-1-(amidinomethyl)benzene] |
|  | ≤ 6.00 | N=C(N)CCCc1ccccc1Sc1ccccc1CCCC(=N)N [Example 6.2, 2-(6-(3-amidinopropyl)phenyl)thio-1-(3-amidinopropyl)benzene] |
| 188 to 190 °C | ≤ 6.00 | N#CN=C(N)CCc1ccccc1Sc1ccccc1CCC(N)=NC#N [Example 7, 2-(6-(2-(cyanoamidino)ethyl)phenyl)thio-1-(2-(cyanoamidino)ethyl)benzene] |
|  | ≤ 6.00 | N#CN=C(N)Cc1ccccc1Sc1ccccc1CC(N)=NC#N [Example 7.1, 2-(6-((cyanoamidino)methyl)phenyl)thio-1-((cyanoamidino)methyl)benzene] |
|  | ≤ 6.00 | NC(=S)Nc1ccccc1Sc1ccccc1NC(N)=S [Example 8, 1,1′-(2,2′-thiobis(2,1-phenylene))dithiourea] |
|  | ≤ 6.00 | N=C(N)SCc1ccccc1-c1ccccc1CSC(=N)N [Example 9, 2-(2′-carbamimidoylsulfanylmethyl-biphenyl-2-ylmethyl)-isothiourea] |
